Results reported in patent publication EP0252482A2, “7-Acyloxy-6-aminoacyloxypolyoxylabdanes, process for their preparation and their use as medicine” (HOECHST AKTIENGESELLSCHAFT, priority 1986, dated 1988).
Counter-ions that a name gives are not always drawn.

Experiments:
[1] = test system: Katzen; test: Blood pressure in the anaesthetised cat (femoral artery), i.v. administration; assay type: in vivo; settings: Katze, Dosis 3 mg/kg
Method: 1. Blutdruck an der Katze: Katzen beiderlei Geschlechts von 3 bis 4 kg Gewicht wurden mit Äther narkotisiert und unter Chloralose-Narkose (70 mg/kg, i.v.) gehalten. Sowohl die Oberschenkelarterie als auch -vene wurden zur Aufzeichnung des Blutdrucks und zur Verabreichung von Medikamenten kanüliert. Der Blutdruck in der Oberschenkelarterie wurde über einen Messwandler Statham 23 Db auf einem physiologischen Nihon-Kohden-Registriergerät aufgezeichnet. Die zu prüfende Verbindung wurde in destilliertem Wasser gelöst und intravenös verabreicht, und der Blutdruckabfall und die Dauer der blutdrucksenkenden Wirkung wurden notiert.
Die mit diesem Modell für typische erfindungsgemäße Verbindungen erhaltenen Resultate sind in der nachfolgenden Tabelle angegeben: […]

[2] = test system: Beagle-Hunde; test: Blood pressure, heart rate and left ventricular dp/dt in the anaesthetised beagle dog, i.v. administration; assay type: in vivo; settings: Hund; for Blutdruckabfall: Natriumpentobarbital; for % Zunahme in dp/dt max: left ventricle
Method: 2. Blutdruck am Hund: Methode: Beagle-Hunde beiderlei Geschlechts (Gewicht im Bereich 10 bis 15 kg) wurden mit Natriumpentobarbital narkotisiert (35 mg/kg, i.v.). Nach Einführung eines Endotrachealrohrs wurden sowohl die Oberschenkelarterie als auch die -vene zur Aufnahme des Blutdrucks und zur Verabreichung der Verbindung kanüliert. Der Druck im linken Ventrikel wurde mit einem Katheterspitzen-Messwandler (Millar-Kathether) gemessen und über einen Hugo Sachs-Differentiator differenziert. Sämtliche Methoden wurden auf einem Hellige-Schreibgerät mit sechs Kanälen aufgezeichnet. Die Elektrokardiogrammsignale wurden auf einem Becton-Dickinson-Gerät verfolgt.
Eine einprozentige Lösung der erfindungsgemäßen Verbindung in destilliertem Wasser wurde hergestellt und in verschiedenen Dosierungen intravenös verabreicht.

Compound: C=CC1(C)CC(=O)C2(O)C(C)(O1)C(OC(=O)CC)C(OC(=O)CN1CCCCC1)C1C(C)(C)CCC(O)C12C (stereo not drawn) [C2H5, 1α,9α-Dihydroxy-8,13-epoxy-6ß-piperidino acetoxy-7ß-propionyloxy-labd-14-en-11-on hydrochlorid]
- Blutdruckabfall ([1]; Chloralose-Narkose): 30 mm Hg
- Dauer ([1]; duration of hypotensive effect): > 120 min
- Dauer ([2]; Dosis 0.3 mg/kg): 10 min
- Dauer ([2]; Dosis 1.0 mg/kg): 60 min
- Pulszunahme ([2]; Dosis 1.0 mg/kg): +19 Pulsschläge pro Min.
- Blutdruckabfall ([2]; Dosis 0.3 mg/kg): 10 mm Hg
- Blutdruckabfall ([2]; Dosis 1.0 mg/kg): 46 mm Hg
- % Zunahme in dp/dt max ([2]; Dosis 0.3 mg/kg): +38%
- % Zunahme in dp/dt max ([2]; Dosis 1.0 mg/kg): +65%
